{"source": "patent US20030203975A1", "about": "“Anti-cancer agents” (priority 1998, published 2003)", "key": {"[1]": {"system": "MAC 15A adenocarcinoma of the colon", "test": "In vitro chemosensitivity against MAC 15A adenocarcinoma (MTT assay)", "assay_type": "cell-based", "settings": "Mus musculus, MAC15A, 96 hours continuous exposure", "method": "In Vitro Activity Against MAC 15A Adenocarcinoma.\nMAC 15A cells were grown in RPMI 1640 medium supplemented with 10% foetal calf serum containing a 1% antibiotic mixture under standard tissue culture conditions and were maintained at 37° C. in a humidified atmosphere of 5% CO2 in air. Cells were harvested from a stock culture in exponential growth phase and plated in 96-well flat-bottomed plates to achieve a final density of 2×10^3 cells per well. After 2 hours incubation medium was replaced with either fresh medium containing 0.5% DMSO (control) or medium containing test compound dissolved in DMSO at a concentrations from 10 mM to 1 nM. Chemosensitivity was assessed using MTT assay by the method of Plumb et al Cancer Research 49 (1989) 4435-4440.\nFollowing 96 hours continuous exposure to drug at 37° C. cells were incubated with fresh drug-free medium immediately prior to addition of MTT solution (5 mg/ml). Medium and MTT were removed after 4 hours and 150 μl of DMSO was added. For each plate the absorbance of the resulting solution was measured at the analytical wavelength 550 nm for formazan product, using a Labsystem Mutiskan. IC50 values were obtained from growth curves of drug concentration against % survival and are expressed in μm."}}}
{"compound": "NCC(=O)OCCNc1cccc2c1C(=O)c1ccccc1C2=O.O=C(O)C(F)(F)F", "note": "[Example 59, 1-[2-(glycyloxy)ethylamino]anthracene-9,10-dione trifluoroacetate]", "values": [{"measurement": "IC50", "setting": "[1]", "result": 3.5, "unit": "µM"}, {"measurement": "melting point", "result": 180, "unit": "°C"}]}
{"compound": "NCC(=O)OCCCNc1cccc2c1C(=O)c1ccccc1C2=O.O=C(O)C(F)(F)F", "note": "[Example 61, 1-[3-(glycyloxy)propylamino]anthracene-9,10-dione trifluoroacetate]", "values": [{"measurement": "IC50", "setting": "[1]", "result": 10.6, "unit": "µM"}, {"measurement": "melting point", "result": 198, "unit": "°C"}]}
{"compound": "N[C@H](Cc1ccccc1)C(=O)OCCCNc1cccc2c1C(=O)c1ccccc1C2=O.O=C(O)C(F)(F)F", "note": "[Example 65, 1-[3-(D-phenylalanyloxy)propylamino]anthracene-9,10-dione trifluoro-acetate]", "values": [{"measurement": "IC50", "setting": "[1]", "result": 4.8, "unit": "µM"}, {"measurement": "melting point", "result": 102, "unit": "°C"}]}
{"compound": "CN(CC(=O)OCCCCNc1cccc2c1C(=O)c1ccccc1C2=O)C(=O)OC(C)(C)C", "note": "[Example 82, 1-[4-(N-tertiarybutoxycarbonylsarcosyloxy)butylamino]anthracene-9,10-dione]", "values": [{"measurement": "melting point", "result": 90, "unit": "°C"}]}
{"compound": "CNCC(=O)OCCCCNc1cccc2c1C(=O)c1ccccc1C2=O.O=C(O)C(F)(F)F", "note": "[Example 83, 1-[4-(sarcosyloxy)butylamino]anthracene-9,10-dione trifluoroacetate]", "values": [{"measurement": "IC50", "setting": "[1]", "result": 7.2, "unit": "µM"}, {"measurement": "melting point", "result": 132, "unit": "°C"}]}
{"compound": "CC[C@H](N)C(=O)OCCCCNc1cccc2c1C(=O)c1ccccc1C2=O.O=C(O)C(F)(F)F", "note": "[Example 87, (S)-1-[4-(2-aminobutanoyloxy)butylamino]-anthracene-9,10-dione trifluoroacetate]", "values": [{"measurement": "IC50", "setting": "[1]", "result": 3, "unit": "µM"}, {"measurement": "melting point", "result": 118, "unit": "°C"}]}
{"compound": "CN[C@@H](C)C(=O)OCCCCNc1cccc2c1C(=O)c1ccccc1C2=O.O=C(O)C(F)(F)F", "note": "[Example 91, 1-[4-(N-methyl-L-alanyloxy)butylamino]anthracene-9,10-dione tri-fluoroacetate]", "values": [{"measurement": "IC50", "setting": "[1]; 96 h", "result": 4.8, "unit": "µM"}, {"measurement": "melting point", "result": 84, "unit": "°C"}]}
{"compound": "NCC(=O)OCCCNc1ccc(O)c2c1C(=O)c1ccccc1C2=O.O=C(O)C(F)(F)F", "note": "[Example 123, 4-hydroxy-1-[3-(glycyloxy)propylamino]anthracene-9,10-dione tri-fluoroacetate]", "values": [{"measurement": "IC50", "setting": "[1]; 96 h", "result": 0.3, "unit": "µM"}, {"measurement": "melting point", "result": 188, "unit": "°C"}]}
{"compound": "NCC(=O)OCCCNc1ccc(O)c2c1C(=O)c1c(O)cccc1C2=O.O=C(O)C(F)(F)F", "note": "[Example 127, 4,8-dihydroxy-1-[3-(glycyloxy)propylamino]anthracene-9,10-dione trifluoroacetate]", "values": [{"measurement": "IC50", "setting": "[1]", "result": 1.3, "unit": "µM"}, {"measurement": "melting point", "result": 196, "unit": "°C"}]}
{"compound": "NCC(=O)N1CCC[C@H]1C(=O)OCCCNc1cccc2c1C(=O)c1ccccc1C2=O.O=C(O)C(F)(F)F", "note": "[Example 131, 1-[3-(glycyl-L-prolyloxy)propylamino]anthracene-9,10-dione tri-fluoroacetate]", "values": [{"measurement": "IC50", "setting": "[1]; 96 h", "result": 2.5, "unit": "µM"}, {"measurement": "melting point", "result": 146, "unit": "°C"}]}
{"compound": "CC(C)C[C@H](N)C(=O)NCC(=O)OCCCNc1cccc2c1C(=O)c1ccccc1C2=O.O=C(O)C(F)(F)F", "note": "[Example 133, 1-[3-(L-leucylglycyloxy)propylamino]anthracene-9,10-dione trifluoroacetate]", "values": [{"measurement": "IC50", "setting": "[1]", "result": 1.2, "unit": "µM"}, {"measurement": "melting point", "result": 100, "unit": "°C"}]}
